According to US20220233661A1, “METHOD OF DETERMINING ELIGIBILITY OF CANCER PATIENT FOR PEPTIDE VACCINE THERAPY” (priority 2019, published 2022):

Legend:
cancer patients = experiment: Test Example 4: correlation between vaccination with individual peptides (or peptide sets) and OS, Cox proportional hazards regression; format: in vivo, human; settings: for HR: Cox proportional hazards regression, OS; for Correlation between immune responses and OS: Negative (mOS) / Correlation between immune responses and OS: Positive (mOS): Table 20, <64% neutrophil and ≥26% lymphocyte; for Correlation between immune responses and OS: Negative (mOS): vaccinated patients with negative IgG response; for Correlation between immune responses and OS: Positive (mOS): vaccinated patients with positive IgG response
Protocol: The Student's t-test and the chi-square test were used to compare quantitative and categorical variables, respectively. OS was calculated as the time in months from the date of clinical trial enrollment to death or to the date of last contact. Time-to-event endpoints were analyzed using the Kaplan-Meier method, and between-group comparison for OS was conducted using the log-rank test. Clinical efficacy of the individual peptides for OS was evaluated by univariate and multivariate analyses with the Cox proportional hazards regression model, and HR and 95% CI were calculated. All reported p-values were two-sided, and p-values less than 0.05 were considered significant. JMP version 12 or SAS version 9.4 software (SAS Institute Inc., Cary, N.C.) was used to perform all analyses.
Correlation levels of the 31 peptides for OS were evaluated by the Cox proportional hazards regression model.
Similarly, in the 2,085 advanced cancer patients (stage IV+recurrence) and the 503 non-advanced cancer patients (I-III stages) correlation levels of the 31 peptides for OS were evaluated by the Cox proportional hazards regression model. […]

[1] = test system: anti-peptide IgG in plasma; experiment: Test Example 4: peptide-specific IgG titer pre and post vaccination, bead-based multiplexed Luminex assay; format: in vivo, human; settings: for Pre-vaccination IgG Negative (number of patients) / Pre-vaccination IgG Positive (number of patients): cut off 10 FIU; for Post vaccination IgG: number of (positive) patients among vaccinated: positive IgG response; for Pre-vaccination IgG Negative patients: number of 2,588 patients below 10 FIU; for Pre-vaccination IgG Positive patients: number of 2,588 patients with ≥10 FIU; for Post vaccination IgG: (positive) patients: number of vaccinated patients with positive IgG response; for Correlation between immune responses and OS: Negative (mOS): patients with negative post-vaccination IgG response to the peptide; for Correlation between immune responses and OS: Positive (mOS): patients with positive post-vaccination IgG response to the peptide
Protocol: As described previously, IgG titer specific to the antigen peptides in plasma was measured by bead-based multiplexed Luminex assay (Luminex, Austin, Tex.) before and after vaccination, i.e., at the end of each cycle or at the end of the clinical trial (Non-Patent Literature 4). In brief, 30 mL of peripheral blood was obtained before and after vaccination. Plasma was incubated with 100 μL of peptide-coupled color-coded beads for 2 hours at 25° C. on a plate shaker. After the incubation, the resultant mixture was washed with a vacuum manifold apparatus and incubated with 100 μL of biotinylated goat anti-human IgG (gamma chain-specific; Vector Laboratories, Burlingame, Calif.) for 1 hour at 25° C. on a plate shaker. The plate was then washed, followed by addition of 100 μL of streptavidin-PE (Life Technologies) to each well, and incubation for 30 minutes at 25° C. on a plate shaker. The resultant beads were washed 4 times, followed by addition of 100 μL of Tween-PBS to each well, and detection of fluorescence intensity units (FIU) on the beads using the Luminex system. The cutoff values of anti-peptide IgG were set to 10 FIU in 100-fold diluted samples.
Pre-vaccination peptide-specific IgG titers to 31 peptides were measured using a Luminex system. As a detectable IgG level, 10 FIU was employed as the cut off level, as reported previously (Noguchi M, et al., Cancer Immunol Immunother. 2013 May; 62(5): 919-29; Sasada T, et al., Current Medicinal Chemistry. 21: 2332-2345, 2014; Kibe S, et al., Cancer Immunology Research 2014; 2(12): 1154-62).
Post-vaccination lgG titers were measured at the ends of the first cycle and the second cycle.

[2] = 2,085 advanced cancer patients (stage IV+recurrence)
[3] = Table 18, all 2,588 cases, vaccinated vs non-vaccinated
[4] = Table 18, all 2,588 cases, median OS of patients under PPV containing the peptide
[5] = Table 18, all 2,588 cases, median OS of patients under PPV not containing the peptide
[6] = Table 19, 2,085 advanced cancer patients (stage IV+recurrence)
[7] = Table 19, 2,085 advanced cancer patients (stage IV+recurrence), PPV containing the peptide
[8] = Table 19, 2,085 advanced cancer patients (stage IV+recurrence), PPV not containing the peptide
[9] = Table 21, patients showing both <64% neutrophil and ≥26% lymphocyte
[10] = Table 21, patients showing both <64% neutrophil and ≥26% lymphocyte, PPV containing the peptide
[11] = Table 21, patients showing both <64% neutrophil and ≥26% lymphocyte, PPV not containing the peptide
[12] = Table 20, patients showing both <64% neutrophil and ≥26% lymphocyte
[13] = patients showing detectable levels
[14] = patients showing positive responses

HYTNASDGL (listed as Homo sapiens) [Lck-208]
median OS of non-vaccinated cases (cancer patients; [2]): 10 months | median OS of vaccinated cases (cancer patients; [2]): 17.1 months | HR (cancer patients; [3]): 0.9 | Vaccinate cases (mOS) (cancer patients; [4]): 134(19.7) M | Non-vaccinate cases (mOS) (cancer patients; [5]): 1,416(11.4) M | HR (cancer patients; [6]): 0.7 | Vaccinate cases (mOS) (cancer patients; [7]): 103(17.1) M | Non-vaccinate cases (mOS) (cancer patients; [8]): 1143(10.0) M | Correlation between immune responses and OS: Negative (mOS) (cancer patients): 19.9 months | Correlation between immune responses and OS: Positive (mOS) (cancer patients): 34 months | HR (cancer patients; [9]): 0.7 | Vaccinate cases (mOS) (cancer patients; [10]): 69(26.7) M | Non-vaccinate cases (mOS) (cancer patients; [11]): 556(17.6) M | Post vaccination IgG Median (FIU) [1, 12]: 9,551 FIU | Pre-vaccination IgG Median (FIU) [1, 12]: 31 FIU | Pre-vaccination IgG Negative (number of patients) [1, 12]: 839 | Pre-vaccination IgG Positive (number of patients) [1, 12]: 227 | Post vaccination IgG: number of (positive) patients among vaccinated [1, 12]: 69(36) | Pre-vaccination IgG Negative patients [1]: 2,028 | Pre-vaccination IgG Positive patients [1]: 560 | Post vaccination IgG: (positive) patients [1]: 134(64) | Pre-vaccination IgG Median (FIU) [1, 13]: 30 FIU | Post vaccination IgG Median (FIU) [1, 14]: 4,597 FIU | Correlation between immune responses and OS: Negative (mOS) [1]: 16.0 months | Correlation between immune responses and OS: Positive (mOS) [1]: 30.5 months

ILEQSGEWWK (listed as Homo sapiens) [Lck-90]
HR (cancer patients; [3]): 1.0 | Vaccinate cases (mOS) (cancer patients; [4]): 502(11.3) M | Non-vaccinate cases (mOS) (cancer patients; [5]): 712(11.0) M | HR (cancer patients; [6]): 1.0 | Vaccinate cases (mOS) (cancer patients; [7]): 391(10.3) M | Non-vaccinate cases (mOS) (cancer patients; [8]): 578(9.4) M | Correlation between immune responses and OS: Negative (mOS) (cancer patients): 12 months | Correlation between immune responses and OS: Positive (mOS) (cancer patients): 26.3 months | HR (cancer patients; [9]): 1.0 | Vaccinate cases (mOS) (cancer patients; [10]): 210(17.8) M | Non-vaccinate cases (mOS) (cancer patients; [11]): 297(17.5) M | Post vaccination IgG Median (FIU) [1, 12]: 4,250 FIU | Pre-vaccination IgG Median (FIU) [1, 12]: 43 FIU | Pre-vaccination IgG Negative (number of patients) [1, 12]: 215 | Pre-vaccination IgG Positive (number of patients) [1, 12]: 851 | Post vaccination IgG: number of (positive) patients among vaccinated [1, 12]: 210(100) | Pre-vaccination IgG Negative patients [1]: 501 | Pre-vaccination IgG Positive patients [1]: 2,087 | Post vaccination IgG: (positive) patients [1]: 502(187) | Pre-vaccination IgG Median (FIU) [1, 13]: 44 FIU | Post vaccination IgG Median (FIU) [1, 14]: 3,350 FIU | Correlation between immune responses and OS: Negative (mOS) [1]: 10.3 months | Correlation between immune responses and OS: Positive (mOS) [1]: 20.9 months

ILGELREKV (listed as Homo sapiens) [WHSC2-141]
HR (cancer patients; [3]): 1.0 | Vaccinate cases (mOS) (cancer patients; [4]): 325(12.1) M | Non-vaccinate cases (mOS) (cancer patients; [5]): 725(11.1) M | HR (cancer patients; [6]): 1.0 | Vaccinate cases (mOS) (cancer patients; [7]): 271(11.1) M | Non-vaccinate cases (mOS) (cancer patients; [8]): 591(10.1) M | Correlation between immune responses and OS: Negative (mOS) (cancer patients): 12 months | Correlation between immune responses and OS: Positive (mOS) (cancer patients): 28.2 months | HR (cancer patients; [9]): 1.0 | Vaccinate cases (mOS) (cancer patients; [10]): 134(18.0) M | Non-vaccinate cases (mOS) (cancer patients; [11]): 300(16.6) M | Post vaccination IgG Median (FIU) [1, 12]: 18,171 FIU | Pre-vaccination IgG Median (FIU) [1, 12]: 38 FIU | Pre-vaccination IgG Negative (number of patients) [1, 12]: 261 | Pre-vaccination IgG Positive (number of patients) [1, 12]: 805 | Post vaccination IgG: number of (positive) patients among vaccinated [1, 12]: 134(91) | Pre-vaccination IgG Negative patients [1]: 680 | Pre-vaccination IgG Positive patients [1]: 1,908 | Post vaccination IgG: (positive) patients [1]: 325(173) | Pre-vaccination IgG Median (FIU) [1, 13]: 39 FIU | Post vaccination IgG Median (FIU) [1, 14]: 13,078 FIU | Correlation between immune responses and OS: Negative (mOS) [1]: 7.7 months | Correlation between immune responses and OS: Positive (mOS) [1]: 19.0 months

KLKHYGPGWV (listed as Homo sapiens) [CypB-129]
HR (cancer patients; [3]): 0.9 | Vaccinate cases (mOS) (cancer patients; [4]): 483(12.3) M | Non-vaccinate cases (mOS) (cancer patients; [5]): 1458(11.2) M | HR (cancer patients; [6]): 0.9 | Vaccinate cases (mOS) (cancer patients; [7]): 393(10.9) M | Non-vaccinate cases (mOS) (cancer patients; [8]): 1183(10.1) M | Correlation between immune responses and OS: Negative (mOS) (cancer patients): 13.2 months | Correlation between immune responses and OS: Positive (mOS) (cancer patients): 29.4 months | HR (cancer patients; [9]): 0.9 | Vaccinate cases (mOS) (cancer patients; [10]): 196(19.3) M | Non-vaccinate cases (mOS) (cancer patients; [11]): 612(16.9) M | Post vaccination IgG Median (FIU) [1, 12]: 3,143 FIU | Pre-vaccination IgG Median (FIU) [1, 12]: 28 FIU | Pre-vaccination IgG Negative (number of patients) [1, 12]: 290 | Pre-vaccination IgG Positive (number of patients) [1, 12]: 776 | Post vaccination IgG: number of (positive) patients among vaccinated [1, 12]: 196(110) | Pre-vaccination IgG Negative patients [1]: 700 | Pre-vaccination IgG Positive patients [1]: 1,888 | Post vaccination IgG: (positive) patients [1]: 483(222) | Pre-vaccination IgG Median (FIU) [1, 13]: 31 FIU | Post vaccination IgG Median (FIU) [1, 14]: 2,483 FIU | Correlation between immune responses and OS: Negative (mOS) [1]: 9.0 months | Correlation between immune responses and OS: Positive (mOS) [1]: 23.8 months

KLVERLGAA (listed as Homo sapiens) [Lck-246]
HR (cancer patients; [3]): 1.0 | Vaccinate cases (mOS) (cancer patients; [4]): 366(11.4) M | Non-vaccinate cases (mOS) (cancer patients; [5]): 684(11.6) M | HR (cancer patients; [6]): 1.0 | Vaccinate cases (mOS) (cancer patients; [7]): 300(9.8) M | Non-vaccinate cases (mOS) (cancer patients; [8]): 562(10.4) M | Correlation between immune responses and OS: Negative (mOS) (cancer patients): 8.7 months | Correlation between immune responses and OS: Positive (mOS) (cancer patients): 28.2 months | HR (cancer patients; [9]): 1.1 | Vaccinate cases (mOS) (cancer patients; [10]): 161(15.4) M | Non-vaccinate cases (mOS) (cancer patients; [11]): 273(18.2) M | Post vaccination IgG Median (FIU) [1, 12]: 15,377 FIU | Pre-vaccination IgG Median (FIU) [1, 12]: 48 FIU | Pre-vaccination IgG Negative (number of patients) [1, 12]: 299 | Pre-vaccination IgG Positive (number of patients) [1, 12]: 767 | Post vaccination IgG: number of (positive) patients among vaccinated [1, 12]: 161(92) | Pre-vaccination IgG Negative patients [1]: 773 | Pre-vaccination IgG Positive patients [1]: 1,815 | Post vaccination IgG: (positive) patients [1]: 366(169) | Pre-vaccination IgG Median (FIU) [1, 13]: 49 FIU | Post vaccination IgG Median (FIU) [1, 14]: 10,806 FIU | Correlation between immune responses and OS: Negative (mOS) [1]: 8.3 months | Correlation between immune responses and OS: Positive (mOS) [1]: 19.3 months
